Among the data in patent US20130116219A1, “ANTIMICROBIAL CARBOLINE COMPOUNDS” (ALCON RESEARCH, LTD., priority 2011, published 2013) are EC50 values, retold here.

One test has as its system Ad19. As to the kind of experiment: Plaque reduction assay in A549 cells, Ad19. The format is cell-based. To be noted: unidentified adenovirus, 168 h, approximately 7 d, read-out: Adenovirus Serotype EC50 (μg/mL) Ad19. Here is the method: (§1) Compounds of the present invention were tested for potency against AdV serotypes Ad3, Ad4, Ad5, Ad7a, Ad8, Ad19, and Ad37 in a plaque reduction assay, a cell-based assay of AdV replication. Ad8, Ad19, and Ad37 are the serotypes most commonly associated with epidemic keratoconjunctivitis (EKC). Ad3, Ad4, and Ad7a are serotypes most commonly associated with follicular conjunctivitis and serotype Ad5 can replicate in the NZW rabbit model of adenoviral ocular keratitis. Ad3, Ad4, Ad5, Ad7a, Ad8, and Ad19 were recovered at the Charles T. Campbell Ophthalmic Microbiology Laboratory from patients presenting with typical adenoviral ocular disease. No clinical isolates of Ad37 were available, so the ATCC (American Type Culture Collection, Manassas, Va.) reference strain of Ad37 was used.
(§2) EC50 values (μg/ml) for inhibition of adenoviral replication were determined by plaque reduction assay. Briefly, cultured A549 cells were inoculated with approximately 100 pfu of the indicated adenovirus serotype. Inoculated cells were overlaid with methylcellulose medium containing Compound 2 at 100, 10, 1, 0.1, 0.01, and 0.001 μg/ml, and incubated at 37° C./5% CO2 for approximately 7 d. Plates were stained with gentian violet, and plaques were counted in a 25× dissecting microscope. IC50, the concentration that inhibited plaque formation by 50%, was estimated from plots of mean plaque count vs. concentration.
In general terms: In a plaque reduction assay, fewer plaques than in the control indicate reduced infectivity or spread.

The next test concerns Ad3. As to the kind of experiment: Plaque reduction assay in A549 cells, Ad3. The format is cell-based. To be noted: unidentified adenovirus, 168 h, approximately 7 d, read-out: Adenovirus Serotype EC50 (μg/mL) Ad3. The method, then:
as §1, §2

For the next test, the system named is Ad4. As to the kind of experiment: Plaque reduction assay in A549 cells, Ad4. The format is cell-based. Conditions: unidentified adenovirus, 168 h, approximately 7 d, read-out: Adenovirus Serotype EC50 (μg/mL) Ad4. The method, then: as §1, §2
The test system of the next test is Ad7a. The test is described as follows: Plaque reduction assay in A549 cells, Ad7a. Conditions: unidentified adenovirus, 168 h, approximately 7 d, read-out: Adenovirus Serotype EC50 (μg/mL) Ad7a. The format is cell-based. Here is the method: as §1, §2
Test [1] deals with Ad5. The test is described as follows: Ad5 genome replication assay (cell-based QPCR) in A549 cells. Conditions: Human adenovirus sp., A549, 72 h, read-out: Ad5 qPCR EC50 (μM). The method, then:
Compounds of the present invention were tested for potency against Ad5 in an Ad5 genome replication assay, a cell-based QPCR assay of Ad5 genome replication in A549 cells, a human lung carcinoma cell line. Serotype of human Ad5, used in this replication assay can also replicate in a NZW rabbit model of adenoviral ocular keratitis.
EC50 values (μM) for inhibition of adenoviral replication were determined by QPCR. Briefly, 10,000 cultured A549 cells were inoculated with 25,000 pfu/well for 3 hrs in 2% FBS F12-K A549 culture media. Following inoculation, A549 cells were treated with log unit dilutions of compound of Formula I (˜10 μM thru˜10 pM) in 10% FBS F12-K culture media with 0.3% DMSO for an additional 3 days. Cell viability was assessed with Alamar Blue (10 μl/well for 2 hrs; fluorescence Ex353; Em595 nm). Plates were washed 3 times with 125 μl PBS, cell lysates were prepared for QPCR analysis using Cells to SNP kit (Life Technologies). Ad5 genome levels per cell were determined with RNaseP and Ad5 hexon Taqman Assays (Life Technologies). EC50, the concentration that inhibited Ad5 genome replication formation by 50%, was estimated from plots of Ad5 genomes/cell vs. compound concentration.
(In general: Real-time PCR tracks product formation cycle by cycle.)

Another test concerns Ad8. As to the kind of experiment: Plaque reduction assay in A549 cells, Ad8. To be noted: unidentified adenovirus, A549, 168 h, read-out: Adenovirus Serotype EC50 (μg/mL) Ad8. The format is cell-based. The method, then:
as §1, §2

Test [2] has as its system Ad5. As to the kind of experiment: Plaque reduction assay in A549 cells, Ad5. To be noted: unidentified adenovirus, A549, 168 h, read-out: Adenovirus Serotype EC50 (μg/mL) Ad5. The format is cell-based. Here is the method: as §1, §2
The test system of the next test is Ad37. As to the kind of experiment: Plaque reduction assay in A549 cells, Ad37. The format is cell-based. To be noted: unidentified adenovirus, 168 h, approximately 7 d, ATCC reference strain, read-out: Adenovirus Serotype EC50 (μg/mL) Ad37. The method, then:
as §1, §2

≈ marks a conversion by molar mass, not a printed value.

In the case of `CC(C)C[C@H]1c2[nH]c3ccc(Cl)cc3c2CCN1C(=O)CCN1CCC(F)(F)CC1` [Compound 6, (S)-1-(6-chloro-1-isobutyl-3,4-dihydro-1H-pyrido[3,4-b]indol-2(9H)-yl)-3-(4,4-difluoropiperidin-1-yl)propan-1-one], the EC50 in the test with Ad19 is < 0.1 µg/mL; in the test with Ad3, < 0.1 µg/mL; with Ad4, 0.1 to 1 µg/mL (≈ 0.228 to 2.28 µM); in the test with Ad7a, < 0.1 µg/mL; with Ad5 [1], < 0.1 µM; with Ad8, < 0.1 µg/mL. Further, the EC50 in the test on Ad5 [2] and in the test with Ad37 was < 0.1 µg/mL in each case.
Consider `CC(C)C[C@H]1c2[nH]c3ccc(Cl)cc3c2CCN1C(=O)CCN1CC[C@H](F)C1` [Compound 35, 1-((S)-6-chloro-1-isobutyl-3,4-dihydro-1H-pyrido[3,4-b]indol-2(9H)-yl)-3-((S)-3-fluoropyrrolidin-1-yl)propan-1-one], for which the EC50 in the test on Ad19 is 0.1 to 1 µg/mL (≈ 0.246 to 2.46 µM); in the test with Ad3, 0.1 to 1 µg/mL (≈ 0.246 to 2.46 µM); in the test on Ad4 it was > 1 µg/mL; in the test on Ad7a, 0.1 to 1 µg/mL (≈ 0.246 to 2.46 µM); in the test with Ad5 [1] it was 0.1 to 1 µM; in the test on Ad8 it was 0.1 to 1 µg/mL (≈ 0.246 to 2.46 µM). Besides, the EC50 in the test on Ad5 [2] and with Ad37 was 0.1 to 1 µg/mL (≈ 0.246 to 2.46 µM) each time.
Regarding `CC(C)CC1c2[nH]c3ccc(Cl)cc3c2CCN1C(=O)CNc1ccccc1` (centres unmarked) [Compound 70], the EC50 with Ad5 [1] was < 0.1 µM.
The same measure, in the same setting: then `CC(C)CC1c2[nH]c3ccc(Cl)cc3c2CCN1C(=O)COc1ccccc1` (centres unmarked) [Compound 71], with 0.1 to 1 µM.
`CC(C)CC1c2[nH]c3ccc(Cl)cc3c2CCN1C(=O)CCc1ccc(O)cc1` (centres unmarked) [Compound 72]: in the test with Ad5 [1], the EC50 was > 1 µM.
Still for that read-out and setting: the figure for `CC(C)CC1c2[nH]c3ccc(Cl)cc3c2CCN1C(=O)CN(C)c1ccccc1` (centres unmarked) [Compound 74] is 0.1 to 1 µM.
For `CC(C)CC1c2[nH]c3ccc(Cl)cc3c2CCN1C(=O)CC1CCN(C2CC2)CC1` (centres unmarked) [Compound 75], the EC50 in the test on Ad5 [1] is 0.1 to 1 µM.
Still for that read-out and setting: the figure for `CC(C)CC1c2[nH]c3ccc(Cl)cc3c2CCN1C(=O)[C@@H](N)Cc1ccccc1` (some centres unmarked) [Compound 76] is > 1 µM; for `O=C(CCC1CCCCC1)N1CCc2c([nH]c3ccc(Cl)cc23)C1CN1CCC(F)(F)CC1` (centres unmarked) [Compound 78, 1-(6-chloro-1-1((4,4-difluoropiperidin-1-yl)methyl)-3,4-dihydro-1H-pyrido[3,4-b]indol-2(9H)-yl)-3-cyclohexylpropan-1-one] it is 0.1 to 1 µM; for `CC(C)CC1c2[nH]c3ccc(Cl)cc3c2CCN1CC(=O)NC1CCCCC1` (centres unmarked) [Compound 79] it is 0.1 to 1 µM.
The same measure, in the same setting: then `O=C(CCC1CCCCC1)N1CCc2c([nH]c3ccc(Cl)cc23)C1CN1CCCCC1` (centres unmarked) [Compound 80], with > 1 µM; and `CC(C)CC1c2[nH]c3ccc(Cl)cc3c2CCN1C(=O)C1CN(c2ncccn2)C1` (centres unmarked) [Compound 81], with 0.1 to 1 µM; and `Cc1nnc(CCC(=O)N2CCc3c([nH]c4ccc(Cl)cc34)C2CC(C)C)o1` (centres unmarked) [Compound 82], with 0.1 to 1 µM.
Turning to `CC(C)C[C@H]1c2[nH]c3ccc(Cl)cc3c2CCN1C(=O)C1CCN(CC(F)F)CC1` [Compound 83], in the test on Ad5 [1], the EC50 was in the range of 0.1 to 1 µM.
On to `CC(C)CC1c2[nH]c3ccc(Cl)cc3c2CCN1C(=O)CN1CCC(F)(F)C1` (centres unmarked) [Compound 84], for which the EC50 in the test on Ad5 [1] was 0.1 to 1 µM.
With `CC(C)CC1c2[nH]c3ccc(Cl)cc3c2CCN1C(=O)CN1CC(F)(F)C1` (centres unmarked) [Compound 85, 1-(6-chloro-1-isobutyl-3,4-dihydro-1H-pyrido[3,4-b]indol-2(9H)-yl)-2-(3,3-difluoroazetidin-1-yl)ethanone], the EC50 in the test on Ad5 [1] is < 0.1 µM.
As for `CC(C)CC1c2[nH]c3ccc(Cl)cc3c2CCN1C(=O)CNCCN1CCC(F)(F)CC1` (centres unmarked) [Compound 86], the EC50 in the test on Ad5 [1] was > 1 µM.
On the same count and under the same terms, then `CC(C)CC1c2[nH]c3ccc(Cl)cc3c2CCN1Cc1ccccn1` (centres unmarked) [Compound 87], with 0.1 to 1 µM; and `CC(C)CC1c2[nH]c3ccc(Cl)cc3c2CCN1Cc1ccco1` (centres unmarked) [Compound 88], with 0.1 to 1 µM.
The same measure, in the same setting: then `CC(C)CC1c2[nH]c3ccc(Cl)cc3c2CCN1C(=O)CNCc1ccco1` (centres unmarked) [Compound 89], with > 1 µM; and `CC(C)CC1c2[nH]c3ccc(Cl)cc3c2CCN1C(=O)CNCc1ccno1` (centres unmarked) [Compound 90], with > 1 µM; and `CC(C)C[C@H]1c2[nH]c3ccc(Cl)cc3c2CCN1C(=O)CNC1CCC(F)(F)CC1` [Compound 94, (S)-1-(6-chloro-1-isobutyl-3,4-dihydro-1H-pyrido[3,4-b]indol-2(9H)-yl)-2-((4,4-difluorocyclohexyl)amino)ethanone], with < 0.1 µM.
Turning to `CC(C)CC1c2[nH]c3ccc(Cl)cc3c2CCN1C1CC1` (centres unmarked) [Compound 95], in the test on Ad5 [1], the EC50 was < 0.1 µM.
Turning to `CC(C)CC1c2[nH]c3ccc(Cl)cc3c2CCN1CC1CC1` (centres unmarked) [Compound 96], the EC50 in the test with Ad5 [1] is 0.1 to 1 µM.
On the same count and under the same terms, the figure for `CC(C)C[C@H]1c2[nH]c3ccc(Br)cc3c2CCN1C(=O)CNC1CC1` [Compound 98, (S)-1-(6-bromo-1-isobutyl-3,4-dihydro-1H-pyrido[3,4-b]indol-2(9H)-yl)-2-(cyclopropylamino)ethanone] is < 0.1 µM; for `CC(C)C[C@H]1c2[nH]c3ccc(Cl)cc3c2CCN1C(=O)CC1CCN(CC(F)F)CC1` [Compound 100] it is < 0.1 µM.
Same read-out and setting: the figure for `CC(C)CC1c2[nH]c3ccc(Cl)cc3c2CCN1CCN1CC[C@H](F)C1` (some centres unmarked) [Compound 101] is > 1 µM.
Still for that read-out and setting: the figure for `CC(C)CC1c2[nH]c3ccc(Cl)cc3c2CCN1C(=O)C1(F)CNC1` (centres unmarked) [Compound 102] is 0.1 to 1 µM; for `CC(C)CC1c2[nH]c3ccc(Cl)cc3c2CCN1C(=O)C1(F)CN(CC(C)C)C1` (centres unmarked) [Compound 103, (6-chloro-1-isobutyl-3,4-dihydro-1H-pyrido[3,4-b]indol-2(9H)-yl)(3-fluoro-1-isobutylazetidin-3-yl)methanone] it is < 0.1 µM.
With `CC(C)C[C@H]1c2[nH]c3ccc(Cl)cc3c2CCN1C(=O)CNC1CC(F)(F)C1` [Compound 104, (S)-1-(6-chloro-1-isobutyl-3,4-dihydro-1H-pyrido[3,4-b]indol-2(9H)-yl)-2-((3,3-difluorocyclobutyl)amino)ethanone], the EC50 in the test on Ad5 [1] was < 0.1 µM.
The same measure, in the same setting: the figure for `CC(C)C[C@H]1c2[nH]c3ccc(Br)cc3c2CCN1C(=O)CCN1CC[C@H](F)C1` [Compound 105] is 0.1 to 1 µM; for `CCCCN1CC(F)(C(=O)N2CCc3c([nH]c4ccc(Cl)cc34)C2CC(C)C)C1` (centres unmarked) [Compound 106] it is < 0.1 µM; for `CC(C)CC1c2[nH]c3ccc(Cl)cc3c2CCN1C(=O)C1CN(CC2CC2(F)F)C1` (centres unmarked) [Compound 107] it is > 1 µM.
Take `CC(C)C[C@H]1c2[nH]c3ccc(Cl)cc3c2CCN1C(=O)CNCCC(F)(F)F` [Compound 108, (S)-1-(6-chloro-1-isobutyl-3,4-dihydro-1H-pyrido[3,4-b]indol-2(9H)-yl)-2-(3,3,3-trifluoropropylamino)ethanone]: in the test on Ad5 [1], the EC50 is < 0.1 µM.
In the case of `CC(C)CC1c2[nH]c3ccc(Cl)cc3c2CCN1CCCc1ccccc1` (centres unmarked) [Compound 109], the EC50 with Ad5 [1] was 0.1 to 1 µM.
Still for that read-out and setting: then `CC(C)C[C@H]1c2[nH]c3ccc(Cl)cc3c2CCN1CCN1CCC(F)(F)CC1` [Compound 110, (S)-6-chloro-2-(2-(4,4-difluoropiperidin-1-yl)ethyl)-1-isobutyl-2,3,4,9-tetrahydro-1H-pyrido[3,4-b]indole], with 0.1 to 1 µM.
